From patent US11504370B2, “Treatment of brain cancer” (Array BioPharma Inc., priority 2012, dated 2022)
Like-named read-outs stand apart in the source and are kept apart here.

What was measured:
[1] = Brain pharmacokinetic (PK) study in mice; format: in vivo; details: for Kp at 1 h / Kp at 2 h / Kp at 4 h / concentration at 1 h / concentration at 2 h / concentration at 4 h / concentration at 0.5 h / Kp at 0.5 h: mouse; for Kp at 1 h / Kp at 2 h / Kp at 4 h / Kp at 0.5 h: brain / plasma, ARRY-380 75 mg/kg, read-out: brain:plasma ratio
Description: The mice were separated into groups and their PK was studied at 4 time points (0.5, 1, 2 and 4 hours, 4 mice per group per timepoint). The animals were euthanized by CO2 inhalation at the time points. Whole blood was drawn (300 μL) by cardiac puncture and […] eppendorf tube containing ethylenediaminetetraacetic acid (“EDTA”) ([…]). The samples were centrifuged, and the plasma was decanted and frozen at -20° C. until delivered to analytical chemistry. The brains were collected. The animals were perfused with 5-10 mL of saline, and the brains were removed, weighed and placed into a fast prep tube for DMPK analysis.

[2] = Dissolution testing at pH 6.5 in phosphate buffer; format: physicochemical; details: pH 6.5 phosphate buffer, 37° C., about 240 minutes
Description: Dissolution testing was performed at a pH of 6.5 in phosphate buffer. […] The solid dispersion was suspended in H2O and added directly to the buffer solution at 37° C. […]

[3] = test system: NCI-N87 gastric carcinoma cells; experiment: Anti-tumor efficacy on N87 human gastric cancer in murine xenograft model (subcutaneous); format: in vivo, mice; details: subcutaneous NCI-N87, N=8
Description: Nude nu/nu female mice (NCI, Bethesda, Md.) were split into five groups (N=8). Tumor cells (NCI-N87 gastric carcinoma cells, NCI, Bethesda, Md. 1×10^7) were implanted into the mice via subcutaneous injection (100 μL) directly on the right flank. To ensure good tumor take, the cells should be greater than 90% viable (thus, the intitial cell suspension of 1×10^7 cells/mL were injected for 1×10^6 cells injected/100 The tumors were allowed to grow to 150±50 mm^3. The tumor size was measured, and the mice were weighed. The mice were administered vehicle (30% Captisol®, 150 g in 500 mL DI water, PO, BID), lapatanib (50 mg/kg, PO, BID, 30% Captisol®), lapatanib (100 mg/kg, PO, BID, 30% Captisol®), N4-(4-([1,2,4]triazolo[1,5-a]pyridin-7-yloxy)-3-methylphenyl)-N6-(4,4-dimethyl-4,5-dihydrooxazol-2-yl)quinazoline-4,6-diamine (50 mg/kg, PO, QD, 30% Captisol) and N4-(4-([1,2,4]triazolo[1,5-a]pyridin-7-yloxy)-3-methylphenyl)-N6-(4,4-dimethyl-4,5-dihydrooxazol-2-yl)quinazoline-4,6-diamine (100 mg/kg, PO, QD, 30% Captisol). The tumor volume was measured. The number of partial responses in the mice was as follows: lapatanib (50 mg/kg) 0, lapatanib (100 mg/kg) 1, ARRY-380 (50 mg/kg) 1, ARRY-380 (100 mg/kg) 4.

[4] = Physicochemical analysis: hygroscopicity
[5] = test system: NCI-N87 gastric carcinoma cells; experiment: Inhibition of NCI-N87 gastric carcinoma xenograft growth in mice implanted intracranially; format: in vivo; details: 75 mg/kg PO BID; intracranial NCI-N87, nude BALB/c mice; FIG. 3
Description: Anesthetized nude BALB/c female mice (Taconic Laboritories Inc., Germantown, N.Y.) were inoculated with human tumor cells (NCI-N87 gastric carcinoma cells, NCI, Bethesda, Md.) intracranially at lamba suture. 5×10^5 cells in saline were implanted via intracranial injection. The mice were separated into three groups (N=12); vehicle (acidified 30% Captisol®, pH about 4.5), 50 mg/kg lapatanib PO BID (30% Captisol®), and 75 mg/kg N4-(4-([1,2,4]triazolo[1,5-a]pyridin-7-yloxy)-3-methylphenyl)-N6-(4,4-dimethyl-4,5-dihydrooxazol-2-yl)quinazoline-4,6-diamine PO BID (acidified 30% Captisol®, pH about 4.5). Dosing began two days after implantation. The dose may have been reduced as necessary if drug-related weight loss (approximately 5%) was observed. The mice were monitored twice daily for general health and behavioral/neurological effects, and body weights (BW) were determined twice weekly. At first sign of neurological problem or body weight loss of greater than 20%, the mice were euthanized by CO2 inhalation. Brain and plasma were collected for analyses.

[6] = female, nude BALB/c, 1 hour, single PO dose, lapatanib 50 mg/kg
[7] = female, nude BALB/c, 2 hour, single PO dose, lapatanib 50 mg/kg
[8] = female, nude BALB/c, 4 hour, single PO dose, lapatanib 50 mg/kg
[9] = female, nude BALB/c, 1 hour, single PO dose, lapatanib 50 mg/kg, ARRY-380 75 mg/kg (AR00440993 = metabolite), perfused brain, read-out: Average Brain Concentration
[10] = female, nude BALB/c, 2 hour, single PO dose, lapatanib 50 mg/kg, ARRY-380 75 mg/kg (AR00440993 = metabolite), perfused brain, read-out: Average Brain Concentration
[11] = female, nude BALB/c, 4 hour, single PO dose, lapatanib 50 mg/kg, ARRY-380 75 mg/kg (AR00440993 = metabolite), perfused brain, read-out: Average Brain Concentration
[12] = 0.5 hour, single PO dose, lapatanib 50 mg/kg, ARRY-380 75 mg/kg (AR00440993 = metabolite of ARRY-380), nude female BALB/c mice
[13] = 1 hour, single PO dose, lapatanib 50 mg/kg, ARRY-380 75 mg/kg (AR00440993 = metabolite of ARRY-380), nude female BALB/c mice
[14] = 2 hour, single PO dose, lapatanib 50 mg/kg, ARRY-380 75 mg/kg (AR00440993 = metabolite of ARRY-380), nude female BALB/c mice
[15] = 4 hour, single PO dose, lapatanib 50 mg/kg, ARRY-380 75 mg/kg (AR00440993 = metabolite of ARRY-380), nude female BALB/c mice
[16] = female, nude BALB/c, 0.5 hour, single PO dose, lapatanib 50 mg/kg
[17] = female, nude BALB/c, 0.5 hour, single PO dose, lapatanib 50 mg/kg, ARRY-380 75 mg/kg (AR00440993 = metabolite), perfused brain, read-out: Average Brain Concentration
[18] = 50 mg/kg PO (lapatanib BID, ARRY-380 QD)
[19] = 100 mg/kg PO (lapatanib BID, ARRY-380 QD)

| Kp at 1 h [1, 6] | Kp at 2 h [1, 7] | Kp at 4 h [1, 8] | concentration at 1 h [1, 9] | concentration at 2 h [1, 10] | concentration at 4 h [1, 11] | Average Plasma Concentration [1, 12] | Average Plasma Concentration [1, 13] | Average Plasma Concentration [1, 14] | Average Plasma Concentration [1, 15] | Kp at 0.5 h [1, 16] | concentration at 0.5 h [1, 17] | SMILES | number of partial responses in the mice [3, 18] | number of partial responses in the mice [3, 19] | further results |
| --- | --- | --- | --- | --- | --- | --- | --- | --- | --- | --- | --- | --- | --- | --- | --- |
| 2.08 | 0.48 | 1.31 | 28.9 ng/g | 35.8 ng/g | 40 ng/g | – | – | – | – | – | – | Cc1cc(Nc2ncnc3ccc(NC4=NC(C)(CO)CO4)cc23)ccc1Oc1ccn2ncnc2c1 (centres unmarked) [AR00440993, (2-((4-((4-([1,2,4]triazolo[1,5-a]pyridin-7-yloxy)-3-methylphenyl)amino)quinazolin-6-yl)amino)-4-methyl-4,5-dihydrooxazol-4-yl)methanol] | – | – | Average Brain Concentration ([1]; 0.5 hour, single PO dose, lapatanib 50 mg/kg, ARRY-380 75 mg/kg (AR00440993 = metabolite), perfused brain): BLQ; brain penetration ([1]; compared with lapatanib or ARRY-380, mice, after PO ARRY-380): significantly higher; concentration at 0.5 h ([1]; plasma, 0.5 hour, single PO dose, lapatanib 50 mg/kg, ARRY-380 75 mg/kg (AR00440993 = metabolite of ARRY-380), nude female BALB/c mice, read-out: Average Plasma Concentration): 20.2 µg/mL; concentration at 1 h ([1]; plasma, 1 hour, single PO dose, lapatanib 50 mg/kg, ARRY-380 75 mg/kg (AR00440993 = metabolite of ARRY-380), nude female BALB/c mice, read-out: Average Plasma Concentration): 67.3 µg/mL; concentration at 2 h ([1]; plasma, 2 hour, single PO dose, lapatanib 50 mg/kg, ARRY-380 75 mg/kg (AR00440993 = metabolite of ARRY-380), nude female BALB/c mice, read-out: Average Plasma Concentration): 134 µg/mL; concentration at 4 h ([1]; plasma, 4 hour, single PO dose, lapatanib 50 mg/kg, ARRY-380 75 mg/kg (AR00440993 = metabolite of ARRY-380), nude female BALB/c mice, read-out: Average Plasma Concentration): 70.4 µg/mL |
| – | – | – | – | – | – | – | – | – | – | – | – | CCO.Cc1cc(Nc2ncnc3ccc(NC4=NC(C)(C)CO4)cc23)ccc1Oc1ccn2ncnc2c1.Cc1cc(Nc2ncnc3ccc(NC4=NC(C)(C)CO4)cc23)ccc1Oc1ccn2ncnc2c1 [Example 21, N4-(4-([1,2,4]triazolo[1,5-a]pyridin-7-yloxy)-3-methylphenyl)-N6-(4,4-dimethyl-4,5-dihydrooxazol-2-yl)quinazoline-4,6-diamine freebase hemi-ethanolate] | – | – | AUC for the free drug species [2]: 5490 ng·h/mL; Cmax for the free drug species [2]: 0.44 µg/mL |
| 0.022 | 0.039 | 0.038 | 90.8 ng/g | 57.4 ng/g | 65.4 ng/g | 1910 ng/mL | 4310 ng/mL | 1740 ng/mL | 1940 ng/mL | 0.026 | 44.9 ng/g | CS(=O)(=O)CCNCc1ccc(-c2ccc3ncnc(Nc4ccc(OCc5cccc(F)c5)c(Cl)c4)c3c2)o1 [Lapatanib, lapatinib, reference compound] | 0 | 1 | – |
| – | – | – | – | – | – | – | – | – | – | – | – | Cc1cc(Nc2ncnc3ccc(NC4=NC(C)(C)CO4)cc23)ccc1Oc1ccn2ncnc2c1 [REF] | – | – | Hygroscopicity (% wt change at 80% RH) [4]: <1% wt change at 80% RH |
| 0.048 | 0.021 | 0.019 | 116 ng/g | 134 ng/g | 42.1 ng/g | 3350 ng/mL | 6420 ng/mL | 6010 ng/mL | 2640 ng/mL | 0.048 | 122 ng/g | Cc1cc(Nc2ncnc3ccc(NC4=NC(C)(C)CO4)cc23)ccc1Oc1ccn2ncnc2c1 [ARRY-380, N4-(4-([1,2,4]Triazolo[1,5-a]pyridin-7-yloxy)-3-methylphenyl)-N6-(4,4-dimethyl-4,5-dihydrooxazol-2-yl)quinazoline-4,6-diamine] | 1 | 4 | phospho-ErbB2/total ErbB2 in the brain [5]: significantly decreases |
